Article PMC12567500, “Activity-Based Profiling of Papain-like Cysteine Proteases During Late-Stage Leaf Senescence in Barley” (Plants, 2025)

How the values were obtained:
[1] = molecular target: R-AMC cleaving aminopeptidase activity (Fr. No 26–27 of barley leaf extract); assay: Inhibition of R-AMC cleaving aminopeptidase activity, pooled ion-exchange fractions Nos. 26–27; format: biochemical, barley (Hordeum vulgare L.); conditions: for IC50: substrate R-AMC 25 µM, Fr. No 26–27, senescing leaves six weeks after anthesis, pH 5.5, read-out: Effect/IC50; for Inhibition of R-AMC cleaving aminopeptidase activity (in words): substrate R-AMC, earlier eluting fractions
[2] = test system: PLCPs (cathepsin B-like activity, Fr. No 35–36 of barley leaf extract); assay: Inhibition of Z-RR-AMC cleavage, pooled ion-exchange fractions Nos. 35–36; format: biochemical, barley (Hordeum vulgare L.); conditions: for IC50: substrate Z-RR-AMC 25 µM, Fr. No 35–36, senescing leaves six weeks after anthesis, pH 5.5, read-out: Effect/IC50
Description: (§1) Soluble proteins from barley leaves were extracted by homogenizing 10 g of leaf powder in 200 mL of ice-cold 50 mM Tris-HCl buffer (pH 7.4). Homogenates were filtered through one layer of Miracloth (Calbiochem, San Diego, CA, USA), centrifuged at 20,000× g for 20 min at 4 °C, and the supernatants were then filtered through a 0.45 μm filter (Avantor, Radnor, PA, USA). PLCPs were separated using anion-exchange chromatography on a DEAE-Sepharose CL-6B column (volume 6 mL) equilibrated with 0.05 M Tris-HCl buffer (pH 7.4). The column was washed with equilibration buffer, and bound material was eluted with a NaCl gradient (0.0–1.0 M). Collected fractions (1 mL each) were kept in an ice bath and used for measurements of peptidase activity and protein content. Fractions with active cysteine proteases were pooled. To reduce the NaCl concentration and exchange the buffer to 0.1 M Na-citrate (pH 5.5), three sequential filtration steps using 10 kDa ultrafiltration 15 mL units (Merck Millipore Ltd., Carrigtwohill, County Cork, Ireland) were utilized, and the samples were incubated with gentle shaking with 10 µM DCG-04 in the presence of 2 mM DTT for 3 h at 37 °C. […] The intensity of DCG-04-labeled barley cysteine proteases was determined in our previous experiments using streptavidin-horseradish peroxidase. After the incubation, proteins were rapidly precipitated using 80% acetone under inclusion of 100 mM NaCl.
(§2) Fluorogenic substrates Z-FR-AMC to determine cathepsin B- and L-like activity, and Z-RR-AMC to determine cathepsin B-like activity, were used. These substrates show fluorescence when AMC is released as a consequence of the hydrolysis of the Arg-AMC bond. The emitted fluorescence was detected with a SpectraMax M2 microplate reader (Molecular Devices, San Jose, CA, USA) with λex = 360 nm and λem = 460 nm. Before use, the substrates were dissolved in DMSO at 10 mM and stored at −20 °C. The measurements were made in 96-well black microplates (PerkinElmer Inc., Waltham, MA, USA), and each well contained a 100 μL final volume of 0.1 M Na-citrate buffer (pH 5.5) with DTT (2 mM), an aliquot of extract or chromatographic fraction, and fluorogenic substrate (25 μM). The reaction was initiated by the addition of the substrate. The final concentration of DMSO in microplate wells was 1% in all assays. The assays were conducted at room temperature, and relative fluorescence readings were recorded over a period of 10 min.
(§3) For the inhibition assays, an inhibitor (1 µL of stock solution of E-64 or bestatin in DMSO, or stock solution of 1,10-phenanthroline in ethanol) at different concentrations was added to the reaction mixture. […]

[3] = test system: PLCPs (cathepsin B- and L-like activity, Fr. No 35–36 of barley leaf extract); assay: Inhibition of Z-FR-AMC cleavage, pooled ion-exchange fractions Nos. 35–36; format: biochemical, barley (Hordeum vulgare L.); conditions: for IC50: substrate Z-FR-AMC 25 µM, Fr. No 35–36, senescing leaves six weeks after anthesis, pH 5.5, read-out: Effect/IC50
Description: as §1, §2, §3

[4] = test system: aleurain (a cysteine aminopeptidase); parameters: method as in PMID 12354950; conditions: cited from earlier work
PLCPs from maize leaves = test system: PLCPs from maize leaves; parameters: method as in PMID 31114592; conditions: ion-exchange chromatography; cited from earlier work
[5] = test system: PLCPs (pooled fractions with active cysteine proteases); assay: DCG-04 labeling of pooled active fractions, remaining PLCP activity checked with Z-FR-AMC and Z-RR-AMC; format: biochemical, barley (Hordeum vulgare L.); conditions: 10 µM DCG-04, 2 mM DTT, 3 h at 37 °C, 0.1 M Na-citrate pH 5.5
Description: as §1, with “After the incubation, proteins were rapidly precipitated using 80% acetone under inclusion of 100 mM NaCl.” left out

c1cnc2c(c1)ccc1cccnc12 [1,10-Phenanthroline, 1,10-phenanthroline]
IC50 [1]: 68.5 ± 12.2 µM | Inhibition of R-AMC cleaving aminopeptidase activity (in words) [1]: inhibited | IC50 [2]: > 5000 µM | IC50 [3]: > 5000 µM

CC(C)C[C@H](NC(=O)[C@H]1O[C@@H]1C(=O)O)C(=O)NCCCCN=C(N)N (relative stereo) [E-64, trans-epoxysuccinyl-L-leucylamido-(4-guanidino)butane]
IC50 [1]: > 25 µM | IC50 [2]: 0.0091 ± 0.0022 µM | Inhibition of the activity of the peak fractions (in words) ([2]; substrate Z-RR-AMC, peak fractions of DEAE-Sepharose): completely inhibited | IC50 [3]: 0.0153 ± 0.0041 µM | Inhibition of the activity of the peak fractions (in words) ([3]; substrate Z-FR-AMC, peak fractions of DEAE-Sepharose): completely inhibited | Inhibition of aleurain activity (in words) [4]: inhibited | Sensitivity of the single Z-FR-AMC cleavage activity peak to inhibition (in words) (PLCPs from maize leaves): sensitive

CCOC(=O)[C@H]1O[C@@H]1C(=O)N[C@@H](CC(C)C)C(=O)N[C@@H](Cc1ccc(O)cc1)C(=O)NCCCCCC(=O)N[C@@H](CCCCNC(=O)CCCC[C@@H]1SC[C@@H]2NC(=O)N[C@@H]21)C(N)=O [DCG-04]
Remaining PLCP activity after incubation with probe [5]: No remaining PLCP activity

CC(C)C[C@H](NC(=O)[C@@H](O)[C@H](N)Cc1ccccc1)C(=O)O [Bestatin, bestatin]
IC50 [1]: 247 ± 38 µM | Inhibition of R-AMC cleaving aminopeptidase activity (in words) [1]: inhibited | IC50 [2]: > 1000 µM | IC50 [3]: > 1000 µM
